Drawing on patent US12662491B2 (Redona Therapeutics, Inc., priority 2020, dated 2026), this text covers IC50 for 20 compounds.

pIC50: −log10 of the molar value.

For the first test, the target named is T1, Zcchc11 enzyme (Homo sapiens, UniProt Q5TAX3).
T1 construct: made in house; host or cells: HEK293 cells (Zcchc11); E. coli Rosetta II (LIN28A)
T1 sequence (Q5TAX3 212-1420): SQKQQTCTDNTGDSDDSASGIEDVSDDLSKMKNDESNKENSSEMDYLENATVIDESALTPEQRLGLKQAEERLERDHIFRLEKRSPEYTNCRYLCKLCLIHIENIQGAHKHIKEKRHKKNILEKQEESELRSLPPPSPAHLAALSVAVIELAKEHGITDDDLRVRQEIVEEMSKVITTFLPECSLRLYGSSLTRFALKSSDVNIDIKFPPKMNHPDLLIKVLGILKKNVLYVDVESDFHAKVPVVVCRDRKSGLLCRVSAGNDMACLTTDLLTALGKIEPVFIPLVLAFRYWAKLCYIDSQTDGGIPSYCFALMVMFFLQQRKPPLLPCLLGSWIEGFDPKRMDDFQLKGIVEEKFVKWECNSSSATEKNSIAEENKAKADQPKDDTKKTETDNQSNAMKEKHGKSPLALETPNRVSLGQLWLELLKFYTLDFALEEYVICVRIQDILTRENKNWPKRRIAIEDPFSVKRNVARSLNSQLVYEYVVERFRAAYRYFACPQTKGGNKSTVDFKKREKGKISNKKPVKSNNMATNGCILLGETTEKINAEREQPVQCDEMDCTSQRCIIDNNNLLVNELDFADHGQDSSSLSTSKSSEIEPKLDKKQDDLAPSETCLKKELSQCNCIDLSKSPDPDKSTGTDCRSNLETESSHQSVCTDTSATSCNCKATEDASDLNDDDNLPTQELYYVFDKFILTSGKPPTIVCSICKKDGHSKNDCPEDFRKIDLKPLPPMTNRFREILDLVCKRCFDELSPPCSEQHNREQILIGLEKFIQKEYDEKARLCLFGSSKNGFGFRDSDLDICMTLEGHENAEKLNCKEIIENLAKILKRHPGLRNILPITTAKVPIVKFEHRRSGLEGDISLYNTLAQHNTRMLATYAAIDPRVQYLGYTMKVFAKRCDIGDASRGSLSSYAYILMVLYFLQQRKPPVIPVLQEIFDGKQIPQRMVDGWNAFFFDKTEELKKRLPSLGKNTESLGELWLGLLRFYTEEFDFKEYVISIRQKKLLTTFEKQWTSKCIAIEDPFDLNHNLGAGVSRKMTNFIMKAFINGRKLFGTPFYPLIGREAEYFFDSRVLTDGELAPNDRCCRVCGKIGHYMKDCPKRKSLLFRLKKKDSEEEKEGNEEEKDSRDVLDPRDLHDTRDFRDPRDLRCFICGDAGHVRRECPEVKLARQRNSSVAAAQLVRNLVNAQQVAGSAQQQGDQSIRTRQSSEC
Nature of the test: TUTase assay (Zcchc11 assay, Lin28a-dependent polyuridylation of pre-let-7). In kind it is biochemical. To be noted: LIN28A 10 nM, Zcchc11 0.2 nM, 5′-fluorescein pre-let-7 miRNA 2 nM, UTP 5 uM, room temperature, 30 minutes pre-incubation; read-out: Potency Lin28a-dep Z11 IC50. A digest of the protocol:
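Potency is measured as inhibition of LIN28A-driven U-tail addition to 2 nM pre-let-7 by 0.2 nM HEK293-derived Zcchc11 fragment with 5 uM UTP at room temperature. Tail growth appears as fluorescein quenching by an annealing rhodamine-A20 probe.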
On to `CN(C)C1CN(c2ccc(-n3cc(C(=O)O)c(=O)c4cc(Cl)c(N5CC(C)(C)C[C@@H]5COc5ncccc5Cl)cc43)cn2)C1` [Example 58, 6-chloro-7-[(2R)-2-[[(3-chloropyridin-2-yl)oxy]methyl]-4,4-dimethylpyrrolidin-1-yl]-1-[6-[3-(dimethylamino)azetidin-1-yl]pyridin-3-yl]-4-oxoquinoline-3-carboxylic acid], for which the pIC50 is not below 6.00. For the compound `CN(C)C1CN(c2ccc(-n3cc(C(=O)O)c(=O)c4cc(Cl)c(N5CCC6CC65COc5ncccc5Cl)cc43)cn2)C1` (centres unmarked) [Example 48, 6-chloro-7-(1-[[(3-chloropyridin-2-yl)oxy]methyl]-2-azabicyclo[3.1.0]hexan-2-yl)-1-[6-[3-(dimethylamino)azetidin-1-yl]pyridin-3-yl]-4-oxoquinoline-3-carboxylic acid], the negative logarithm of the IC50 (pIC50) is not below 6.00.

The test is the same for the next values; noted with them: Lin28a-dependent Zcchc11 (Z11) TUTase activity; read-out: Potency Lin28a-dep Z11 IC50.
Turning to “rac-6- chloro-7- ((2R,3S)-2- (((3- chloropyridin- 2- yl)oxy) methyl)-3- methyl- pyrrolidin-1- yl)-1-(6-(3- (dimethyl- amino) azetidin-1- yl)pyridin- 3-yl)-4- oxo-1,4- dihydro- quinoline-3- carboxylic acic [Compound 260]”, the pIC50 was not below 6.00.

As for `O=C(O)c1cn(-c2cc(F)cc(F)c2)c2cc(N3CCC[C@@H]3COc3ccccn3)c(F)cc2c1=O` [Compound 144, (R)-1-(3,5-difluorophenyl)-6-fluoro-4-oxo-7-(2-((pyridin-2-yloxy)methyl)pyrrolidin-1-yl)-1,4-dihydro-quinoline-3-carboxylic acid], the pIC50 was 5.00 to 6.00. On the same count and under the same terms, the value for `COCCOc1ccc(-n2cc(C(=O)O)c(=O)c3cc(F)c(N4CCC[C@@H]4COc4ncccc4C)cc32)cc1` [Compound 124, (R)-6-fluoro-1-(4-(2-methoxyethoxy)phenyl)-7-(2-(((3-methylpyridin-2-yl)oxy)methyl)pyrrolidin-1-yl)-4-oxo-1,4-dihydro-quinoline-3-carboxylic acid] was not below 6.00.

Take `CN(C)C1CN(c2ccc(-n3cc(C(=O)O)c(=O)c4cc(Cl)c(N5CCC(C)(C)C5COc5ncccc5Cl)cc43)cn2)C1` (centres unmarked) [Compound 259, 6-chloro-7-(2-(((3-chloropyridin-2-yl)oxy)methyl)-3,3-dimethyl-pyrrolidin-1-yl)-1-(6-(3-(dimethyl-amino)azetidin-1-yl)pyridin-3-yl)-4-oxo-1,4-dihydro-quinoline-3-carboxylic acid]: the negative-log IC50 (pIC50) is not below 6.00. `O=C(O)c1cn(C2CC2)c2cc(N3CCC[C@@H]3COc3ccccc3)c(F)cc2c1=O` [Compound 96, (R)-1-cyclopropyl-6-fluoro-4-oxo-7-(2-(phenoxy-methyl)pyrrolidin-1-yl)-1,4-dihydro-quinoline-3-carboxylic acid]: the pIC50 was less than 4.30. The same measure, in the same setting: the value for `COc1ccc(Cl)c(OC[C@H]2C[C@H]3C[C@H]3N2c2cc3c(cc2Cl)c(=O)c(C(=O)O)cn3-c2ccnc(N)c2)n1` [Compound 198, 1-(2-aminopyridin-4-yl)-6-chloro-7-((1R,3R,5R)-3-(((3-chloro-6-methoxy-pyridin-2-yl)oxy)methyl)-2-azabicyclo [3.1.0]hexan-2-yl)-4-oxo-1,4-dihydro-quinoline-3-carboxylic acid] was not below 6.00. On the same count and under the same terms, the value for `CN(C)C1CN(c2ccc(-n3cc(C(=O)O)c(=O)c4cc(C#N)c(N5C6CCC5(COc5ncccc5F)CC6)cc43)cn2)C1` [Compound 181, 6-cyano-1-(6-(3-(dimethyl-amino)azetidin-1-yl)pyridin-3-yl)-7-(1-(((3-fluoropyridin-2-yl)oxy)methyl)-7-azabicyclo [2.2.1]heptan-7-yl)-4-oxo-1,4-dihydro-quinoline-3-carboxylic acid] was not below 6.00; that for `N#Cc1cc2c(=O)c(C(=O)O)cn(-c3cnccn3)c2nc1N1CCC[C@@H]1COc1ccccc1` [Compound 283, (R)-6-cyano-4-oxo-7-(2-(phenoxy-methyl)pyrrolidin-1-yl)-1-(pyrazin-2-yl)-1,4-dihydro-1,8-naphthyridine-3-carboxylic acid] was 4.30 to 5.00.

Staying with this test, now noted: Lin28a-dependent Zcchc11 (Z11) TUTase assay; read-out: Potency Lin28a-dep Z11 IC50.
Consider `NC(=O)Cn1cc(C(=O)O)c(=O)c2cc(F)c(N3CCC[C@@H]3COc3ccccn3)cc21` [Example 574, (R)-1-(2-amino-2-oxoethyl)-6-fluoro-4-oxo-7-(2-((pyridin-2-yloxy)methyl)pyrrolidin-1-yl)-1,4-dihydroquinoline-3-carboxylic acid], for which the pIC50 was 5.00 to 6.00. `O=C(O)c1cn(-c2cccnn2)c2cc(N3CCC[C@@H]3COc3ncccc3Cl)c(Cl)cc2c1=O` [Example 498, (R)-6-chloro-7-(2-(((3-chloropyridin-2-yl)oxy)methyl)pyrrolidin-1-yl)-4-oxo-1-(pyridazin-3-yl)-1,4-dihydroquinoline-3-carboxylic acid]: the pIC50 was not below 6.00. As to `COc1ccnc(OC[C@H]2C[C@H]3C[C@H]3N2c2nc3c(cc2Cl)c(=O)c(C(=O)O)cn3-c2ccc(N3CC(N(C)C)C3)nc2)c1Cl` [Example 679, 6-chloro-7-((1R,3R,5R)-3-(((3-chloro-4-methoxypyridin-2-yl)oxy)methyl)-2-azabicyclo[3.1.0]hexan-2-yl)-1-(6-(3-(dimethylamino)azetidin-1-yl)pyridin-3-yl)-4-oxo-1,4-dihydro-1,8-naphthyridine-3-carboxylic acid], the pIC50 was not below 6.00. `Cc1c(F)cccc1-n1cc(C(=O)O)c(=O)c2cc(F)c(N3CCC[C@@H]3COc3ccccn3)cc21` [Example 397, (R)-6-fluoro-1-(3-fluoro-2-methylphenyl)-4-oxo-7-(2-((pyridin-2-yloxy)methyl)pyrrolidin-1-yl)-1,4-dihydroquinoline-3-carboxylic acid]: the pIC50 was 5.00 to 6.00.

As to `O=C(O)c1cn(-c2ccccc2F)c2cc(N3CCC[C@@H]3COc3ccccn3)c(F)cc2c1=O` [Example 373, (R)-6-fluoro-1-(2-fluorophenyl)-4-oxo-7-(2-((pyridin-2-yloxy)methyl)pyrrolidin-1-yl)-1,4-dihydroquinoline-3-carboxylic acid], the negative logarithm of the IC50 (pIC50) was 5.00 to 6.00.

Turning to `CNc1ccc(-n2cc(C(=O)O)c(=O)c3cc(Cl)c(N4CCC[C@@H]4COc4ncccc4Cl)cc32)cn1` [Example 417, (R)-6-chloro-7-(2-(((3-chloropyridin-2-yl)oxy)methyl)pyrrolidin-1-yl)-1-(6-(methylamino)pyridin-3-yl)-4-oxo-1,4-dihydroquinoline-3-carboxylic acid], the negative logarithm of the IC50 (pIC50) was not below 6.00. The same measure, in the same setting: in the case of `O=C(O)c1cn(-c2cc(F)cc(F)c2)c2cc(N3CCC[C@@H]3COc3ccccn3)c(F)cc2c1=O` [Example 388, (R)-1-(3,5-difluorophenyl)-6-fluoro-4-oxo-7-(2-((pyridin-2-yloxy)methyl)pyrrolidin-1-yl)-1,4-dihydroquinoline-3-carboxylic acid] it was 5.00 to 6.00; in that of `O=C(O)c1cn(-c2cnccn2)c2cc(N3CCC[C@@H]3COc3ncccc3Cl)c(Br)cc2c1=O` [Example 511, (R)-6-bromo-7-(2-(((3-chloropyridin-2-yl)oxy)methyl)pyrrolidin-1-yl)-4-oxo-1-(pyrazin-2-yl)-1,4-dihydroquinoline-3-carboxylic acid], not below 6.00; in that of `Cc1cc2c(=O)c(C(=O)O)cn(-c3ccc(N4CC(N(C)C)C4)nc3)c2cc1N1CCC[C@@H]1COc1ncccc1C` [Example 545, (R)-1-(6-(3-(dimethylamino)azetidin-1-yl)pyridin-3-yl)-6-methyl-7-(2-(((3-methylpyridin-2-yl)oxy)methyl)pyrrolidin-1-yl)-4-oxo-1,4-dihydroquinoline-3-carboxylic acid], not below 6.00.

As to `CN(C)CCNc1ccc(-n2cc(C(=O)O)c(=O)c3cc(Cl)c(N4CCC[C@@H]4COc4ncccc4Cl)cc32)cn1` [Example 416, (R)-6-chloro-7-(2-(((3-chloropyridin-2-yl)oxy)methyl)pyrrolidin-1-yl)-1-(6-((2-(dimethylamino)ethyl)amino)pyridin-3-yl)-4-oxo-1,4-dihydroquinoline-3-carboxylic acid], the negative logarithm of the IC50 (pIC50) is not below 6.00.
